Reference: ChEMBL document CHEMBL3421625, “Discovery and optimization of novel antagonists to the human neurokinin-3 receptor for the treatment of sex-hormone disorders (Part I)” (J Med Chem, 2015)
Converted amounts (≈) assume the structure as drawn. Blank lines part the entries; values can stand above or below the compound they belong to.

Assays:
Cytochrome P450 2C9 = Cytochrome P450 2C9 (Homo sapiens, UniProt P11712); assay: Inhibition of CYP2C9 (unknown origin) by luciferase reporter assay in presence of NADPH regeneration system; type: ADME
Cytochrome P450 2C9, sequence (P11712 whole entry): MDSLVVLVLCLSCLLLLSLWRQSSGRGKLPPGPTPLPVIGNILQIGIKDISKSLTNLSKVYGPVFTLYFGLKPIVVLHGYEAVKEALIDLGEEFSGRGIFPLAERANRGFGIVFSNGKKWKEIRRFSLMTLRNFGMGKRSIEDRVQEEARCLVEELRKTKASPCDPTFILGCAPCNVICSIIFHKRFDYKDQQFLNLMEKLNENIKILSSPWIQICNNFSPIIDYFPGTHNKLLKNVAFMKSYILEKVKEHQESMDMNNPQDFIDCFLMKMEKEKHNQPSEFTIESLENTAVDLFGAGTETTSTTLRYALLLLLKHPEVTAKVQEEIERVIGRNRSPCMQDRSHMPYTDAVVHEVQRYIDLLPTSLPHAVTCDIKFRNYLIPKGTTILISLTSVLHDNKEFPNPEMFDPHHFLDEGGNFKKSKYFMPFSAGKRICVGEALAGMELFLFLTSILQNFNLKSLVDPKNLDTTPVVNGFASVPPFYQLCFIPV

Cytochrome P450 2C19 = Cytochrome P450 2C19 (Homo sapiens, UniProt P33261); assay: Inhibition of CYP2C19 (unknown origin) by luciferase reporter assay in presence of NADPH regeneration system
Cytochrome P450 2C19, sequence (P33261 whole entry): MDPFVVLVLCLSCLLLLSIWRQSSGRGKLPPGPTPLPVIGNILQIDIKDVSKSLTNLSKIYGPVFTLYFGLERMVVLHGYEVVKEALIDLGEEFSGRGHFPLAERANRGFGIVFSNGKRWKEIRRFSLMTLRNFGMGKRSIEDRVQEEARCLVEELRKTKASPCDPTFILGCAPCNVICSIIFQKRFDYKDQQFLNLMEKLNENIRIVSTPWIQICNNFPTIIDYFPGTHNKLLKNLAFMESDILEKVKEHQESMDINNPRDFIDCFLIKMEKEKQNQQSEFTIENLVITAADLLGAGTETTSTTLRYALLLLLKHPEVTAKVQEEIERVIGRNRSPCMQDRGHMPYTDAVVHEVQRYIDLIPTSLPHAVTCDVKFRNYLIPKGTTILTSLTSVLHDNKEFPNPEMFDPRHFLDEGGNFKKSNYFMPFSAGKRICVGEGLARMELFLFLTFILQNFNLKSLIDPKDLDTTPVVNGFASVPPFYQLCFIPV

[1] = Half life in rat liver microsomes; type: ADME
Cytochrome P450 2D6 = Cytochrome P450 2D6 (Homo sapiens, UniProt P10635); assay: Inhibition of CYP2D6 (unknown origin) by luciferase reporter assay in presence of NADPH regeneration system; type: ADME
Cytochrome P450 2D6, sequence (P10635 whole entry): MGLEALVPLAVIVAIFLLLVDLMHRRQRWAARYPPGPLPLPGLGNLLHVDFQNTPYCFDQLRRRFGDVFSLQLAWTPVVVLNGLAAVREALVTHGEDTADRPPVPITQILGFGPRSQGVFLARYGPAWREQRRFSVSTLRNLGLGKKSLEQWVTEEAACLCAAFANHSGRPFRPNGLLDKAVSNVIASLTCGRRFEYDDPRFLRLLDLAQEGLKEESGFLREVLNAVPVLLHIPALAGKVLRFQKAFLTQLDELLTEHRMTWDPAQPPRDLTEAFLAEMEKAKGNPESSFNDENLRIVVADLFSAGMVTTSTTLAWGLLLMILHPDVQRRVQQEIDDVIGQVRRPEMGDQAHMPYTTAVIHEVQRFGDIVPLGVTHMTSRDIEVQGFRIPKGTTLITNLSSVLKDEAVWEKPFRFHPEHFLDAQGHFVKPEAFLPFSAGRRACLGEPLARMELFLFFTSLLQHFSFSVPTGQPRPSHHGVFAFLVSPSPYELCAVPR

[2] = Solubility of the compound in PBS buffer at pH 7.4 by shake-flask method; type: physicochemical
Neuromedin-K receptor [3] = target: T1, Neuromedin-K receptor (Homo sapiens, UniProt P29371); assay: biochemical
T1 sequence (P29371 whole entry): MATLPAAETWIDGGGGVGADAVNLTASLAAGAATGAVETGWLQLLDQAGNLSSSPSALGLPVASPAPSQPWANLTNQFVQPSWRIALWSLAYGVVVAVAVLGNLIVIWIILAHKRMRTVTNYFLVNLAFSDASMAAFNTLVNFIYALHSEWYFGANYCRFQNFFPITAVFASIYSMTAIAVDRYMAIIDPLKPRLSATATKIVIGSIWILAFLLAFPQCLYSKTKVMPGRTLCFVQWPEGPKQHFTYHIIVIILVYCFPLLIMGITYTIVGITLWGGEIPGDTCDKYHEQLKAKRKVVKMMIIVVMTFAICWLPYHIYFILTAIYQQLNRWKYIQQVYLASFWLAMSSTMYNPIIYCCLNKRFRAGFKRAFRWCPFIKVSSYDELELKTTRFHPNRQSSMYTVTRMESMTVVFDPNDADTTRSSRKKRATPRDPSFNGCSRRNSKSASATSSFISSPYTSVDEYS
Description: Displacement of [3H]-SB222200 from recombinant human NK3R expressed in CHO cell membranes after 90 mins by scintillation counting analysis

[4] = Lipophilicity, log D of the compound at pH 7.4; type: physicochemical; conditions: buffer, read-out: logD
Neuromedin-K receptor [5] = target: T1, Neuromedin-K receptor
Cytochrome P450 1A2 = target: T2, Cytochrome P450 1A2 (Homo sapiens, UniProt P05177); assay: Inhibition of CYP1A2 (unknown origin) by luciferase reporter assay in presence of NADPH regeneration system; type: ADME
T2 sequence (P05177 whole entry): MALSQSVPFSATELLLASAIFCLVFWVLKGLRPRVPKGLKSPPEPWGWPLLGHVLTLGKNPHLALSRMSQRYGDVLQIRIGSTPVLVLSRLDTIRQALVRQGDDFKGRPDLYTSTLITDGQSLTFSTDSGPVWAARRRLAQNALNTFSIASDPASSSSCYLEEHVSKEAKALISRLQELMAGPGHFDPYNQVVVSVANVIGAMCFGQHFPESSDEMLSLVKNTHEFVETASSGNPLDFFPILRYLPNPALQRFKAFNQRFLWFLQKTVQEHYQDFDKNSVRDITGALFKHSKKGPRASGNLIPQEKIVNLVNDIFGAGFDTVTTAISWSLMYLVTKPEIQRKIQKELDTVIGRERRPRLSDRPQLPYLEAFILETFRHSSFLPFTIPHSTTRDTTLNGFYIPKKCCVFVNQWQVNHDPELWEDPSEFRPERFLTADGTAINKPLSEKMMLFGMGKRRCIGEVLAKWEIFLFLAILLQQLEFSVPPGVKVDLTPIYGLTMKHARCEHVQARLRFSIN

Substance-K receptor [6] = target: T3, Substance-K receptor (Homo sapiens, UniProt P21452); assay: Displacement of [125I]NKA from human NK2R expressed in CHO cell membranes after 90 mins by scintillation counting analysis
T3 sequence (P21452 whole entry): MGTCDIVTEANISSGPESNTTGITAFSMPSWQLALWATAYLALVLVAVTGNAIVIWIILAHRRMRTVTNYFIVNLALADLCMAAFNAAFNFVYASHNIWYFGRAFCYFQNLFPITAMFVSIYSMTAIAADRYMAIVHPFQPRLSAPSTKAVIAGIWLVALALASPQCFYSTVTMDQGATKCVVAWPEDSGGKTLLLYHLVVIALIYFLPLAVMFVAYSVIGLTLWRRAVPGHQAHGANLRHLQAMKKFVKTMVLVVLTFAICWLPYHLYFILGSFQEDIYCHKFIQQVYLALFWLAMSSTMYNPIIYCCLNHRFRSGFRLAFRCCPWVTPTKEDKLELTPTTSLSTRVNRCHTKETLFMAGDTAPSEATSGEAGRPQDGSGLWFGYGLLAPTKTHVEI

Substance-P receptor = Substance-P receptor (Homo sapiens, UniProt P25103)
Substance-P receptor, sequence (P25103 whole entry): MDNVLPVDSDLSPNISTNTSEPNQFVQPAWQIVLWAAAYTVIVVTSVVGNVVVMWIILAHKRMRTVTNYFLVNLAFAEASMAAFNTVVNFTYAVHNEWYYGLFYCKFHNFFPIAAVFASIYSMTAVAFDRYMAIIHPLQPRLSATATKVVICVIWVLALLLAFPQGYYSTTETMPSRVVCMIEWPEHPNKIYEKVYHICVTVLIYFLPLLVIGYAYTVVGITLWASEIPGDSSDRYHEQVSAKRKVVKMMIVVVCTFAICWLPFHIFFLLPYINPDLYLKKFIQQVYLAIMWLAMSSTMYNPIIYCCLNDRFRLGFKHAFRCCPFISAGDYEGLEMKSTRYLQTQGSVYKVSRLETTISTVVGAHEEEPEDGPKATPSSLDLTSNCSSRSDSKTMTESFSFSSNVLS
Description: Displacement of [3H]-Substance P from human NK1R after 90 mins by scintillation counting analysis

NK-3 receptor = target: T4, NK-3 receptor (Macaca mulatta, UniProt Q2WGM0)
T4 sequence (Q2WGM0 whole entry): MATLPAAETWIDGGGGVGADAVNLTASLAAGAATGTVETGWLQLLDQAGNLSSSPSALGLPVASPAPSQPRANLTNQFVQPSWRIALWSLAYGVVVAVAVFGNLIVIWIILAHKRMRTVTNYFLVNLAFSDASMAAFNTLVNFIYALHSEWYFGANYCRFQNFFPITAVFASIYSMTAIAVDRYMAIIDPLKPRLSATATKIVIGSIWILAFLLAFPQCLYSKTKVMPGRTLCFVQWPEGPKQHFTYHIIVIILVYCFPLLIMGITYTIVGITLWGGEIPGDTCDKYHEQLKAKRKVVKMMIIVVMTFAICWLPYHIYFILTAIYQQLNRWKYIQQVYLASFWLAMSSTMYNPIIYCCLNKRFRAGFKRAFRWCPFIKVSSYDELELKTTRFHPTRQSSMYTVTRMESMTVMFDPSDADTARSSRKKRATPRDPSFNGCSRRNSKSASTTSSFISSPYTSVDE
Description: Displacement of [3H]-SB222200 from monkey NK3R after 90 mins by scintillation counting analysis

[7] = target: Kappa-type opioid receptor (Homo sapiens) (UniProt P41145); assay: Inhibition of KOR (unknown origin) at 10 uM relative to control
Kappa-type opioid receptor (Homo sapiens), sequence (P41145 whole entry): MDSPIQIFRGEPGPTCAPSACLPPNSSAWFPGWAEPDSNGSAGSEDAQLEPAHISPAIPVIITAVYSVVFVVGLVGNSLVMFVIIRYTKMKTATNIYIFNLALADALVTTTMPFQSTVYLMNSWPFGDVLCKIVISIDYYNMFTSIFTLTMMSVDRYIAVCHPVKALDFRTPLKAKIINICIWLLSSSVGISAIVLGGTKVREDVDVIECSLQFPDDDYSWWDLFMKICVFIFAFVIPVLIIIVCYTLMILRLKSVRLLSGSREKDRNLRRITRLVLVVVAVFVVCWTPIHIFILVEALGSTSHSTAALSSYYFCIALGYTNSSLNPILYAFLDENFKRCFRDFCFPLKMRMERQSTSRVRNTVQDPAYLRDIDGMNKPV

Substance-K receptor [8] = target: T3, Substance-K receptor; assay: Displacement of [125I]-neurokinin A from human NK2R after 90 mins by scintillation counting analysis
[9] = target: T5, Gonadotropin-releasing hormone receptor (Homo sapiens) (UniProt P30968); assay: Inhibition of GnRH-R (unknown origin) at 10 uM relative to control
T5 sequence (whole entry): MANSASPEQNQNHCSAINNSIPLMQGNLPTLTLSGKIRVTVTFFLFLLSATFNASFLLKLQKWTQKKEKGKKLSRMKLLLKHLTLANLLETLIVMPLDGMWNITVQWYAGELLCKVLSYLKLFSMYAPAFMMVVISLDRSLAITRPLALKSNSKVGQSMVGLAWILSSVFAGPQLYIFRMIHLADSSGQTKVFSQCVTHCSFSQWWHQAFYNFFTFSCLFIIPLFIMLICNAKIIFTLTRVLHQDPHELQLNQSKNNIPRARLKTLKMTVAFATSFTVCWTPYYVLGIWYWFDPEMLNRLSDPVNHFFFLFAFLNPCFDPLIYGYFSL

[10] = target: Neuropeptide FF receptor 1 (Homo sapiens) (UniProt Q9GZQ6); assay: Inhibition of NPFF1 (unknown origin) at 10 uM relative to control
Neuropeptide FF receptor 1 (Homo sapiens), sequence (Q9GZQ6 whole entry): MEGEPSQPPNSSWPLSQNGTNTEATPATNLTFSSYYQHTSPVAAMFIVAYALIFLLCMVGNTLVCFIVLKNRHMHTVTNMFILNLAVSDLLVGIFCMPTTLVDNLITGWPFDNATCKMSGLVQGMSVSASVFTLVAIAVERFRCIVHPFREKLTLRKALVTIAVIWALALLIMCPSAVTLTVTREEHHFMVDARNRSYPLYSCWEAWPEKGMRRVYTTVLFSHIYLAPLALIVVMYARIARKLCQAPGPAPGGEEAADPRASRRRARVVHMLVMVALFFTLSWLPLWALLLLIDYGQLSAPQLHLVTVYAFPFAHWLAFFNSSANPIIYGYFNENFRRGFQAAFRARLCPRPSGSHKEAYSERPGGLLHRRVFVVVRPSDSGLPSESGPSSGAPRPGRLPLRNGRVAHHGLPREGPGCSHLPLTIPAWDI

IC50 (Cytochrome P450 2C9): < 5000 nM | IC50 (Cytochrome P450 2C19): < 5000 nM | half-life [1]: 13 min | IC50 (Cytochrome P450 2D6): < 5000 nM | solubility thermodynamic [2]: 1.3 µM (≈ 0.523 µg/mL) | Ki (Neuromedin-K receptor [3]): 76 nM | logD [4]: 3.4 | IC50 (Neuromedin-K receptor [5]): 109 nM | IC50 (Cytochrome P450 1A2): < 5000 nM
Structure (SMILES): N#CC(c1ccccn1)c1ccnc(N2CCN(C(=O)c3ccc(F)cc3)CC2)n1 (stereo unspecified)

Ki (Substance-K receptor [6]): 15.8 nM
Structure (SMILES): CSCC[C@H](NC(=O)[C@H](CC(C)C)NC(=O)CNC(=O)[C@@H](NC(=O)[C@H](Cc1ccccc1)NC(=O)[C@H](Cc1ccccc1)NC(=O)[C@H](CC(=O)O)NC(=O)[C@H](Cc1c[nH]cn1)NC(=O)[C@H](CCSC)NC(=O)[C@@H](N)CC(=O)O)C(C)C)C(N)=O [NEUROKININ B]

Ki (Substance-P receptor): 12600 nM | Ki (NK-3 receptor): 6.31 nM | inhibition [7]: 42% | Ki (Substance-K receptor [8]): 12600 nM | inhibition [9]: 35% | inhibition [10]: 24%
Structure (SMILES): Cc1nsc(-c2nnc3n2CCN(C(=O)c2ccc(-c4cccs4)cc2)[C@@H]3C)n1
